Measured values taken from US11999727B2 (Tango Therapeutics, Inc., priority 2020, dated 2024).

Key:
PRMT5 [1] = target: T1, PRMT5 (Homo sapiens, UniProt O14744); assay: PRMT5 biochemical IC50 assay with no cofactor; details: PRMT5, no cofactor
T1 construct: purchased Viva (custom protein)
Source text: Table 1 indicates IC50 values (μM) against PRMT5 for exemplary compounds in the presence of SAM as cofactor, with no cofactor, and with MTA as cofactor, respectively (columns 4-6). […] Ki values can be calculated from the IC50 values as described in the Examples section. As detailed in the Examples section, for the assay performed in the presence of SAM, IC50=Ki×1.5 (Ki=IC50/1.5).

PRMT5 [2] = target: T1, PRMT5; assay: PRMT5 biochemical IC50 assay with MTA as cofactor; details: PRMT5, MTA as cofactor; read-out: MTA IC50
PRMT5 [3] = target: T1, PRMT5; assay: PRMT5 biochemical IC50 assay with SAM as cofactor; details: PRMT5, SAM as cofactor; read-out: SAM IC50
[4] = test system: HAP1 MTAP-deleted cell line; assay: SDMA in-cell western assay, HAP1 MTAP-deleted; assay type: cell-based; details: for MTAP intact/deleted ratio: SDMA in-cell western; for IC50: Homo sapiens
Source text: Table 1 also indicates IC50 values in an MTAP-isogenic cell line pair for exemplary compounds in an SDMA in-cell western assay (columns 7-8). HAP1 MTAP-intact is a cell line in which endogenous levels of MTAP are expressed, and HAP1 MTAP-deleted is an MTAP-null cell line.

[5] = test system: HAP1 MTAP-deleted cell line; assay: Viability assay, MTAP-deleted cell line; assay type: cell-based
Source text: Table 1 additionally indicates IC50 values in a viability assay for the MTAP-deleted cell line (column 10), indicating the effect of treatment with compound on cell survival.

[6] = read-out: No Cofactor/ rel IC50
[7] = Homo sapiens, HAP1, read-out: HAP1 MTAP deleted viability

T1 sequence (O14744 whole entry): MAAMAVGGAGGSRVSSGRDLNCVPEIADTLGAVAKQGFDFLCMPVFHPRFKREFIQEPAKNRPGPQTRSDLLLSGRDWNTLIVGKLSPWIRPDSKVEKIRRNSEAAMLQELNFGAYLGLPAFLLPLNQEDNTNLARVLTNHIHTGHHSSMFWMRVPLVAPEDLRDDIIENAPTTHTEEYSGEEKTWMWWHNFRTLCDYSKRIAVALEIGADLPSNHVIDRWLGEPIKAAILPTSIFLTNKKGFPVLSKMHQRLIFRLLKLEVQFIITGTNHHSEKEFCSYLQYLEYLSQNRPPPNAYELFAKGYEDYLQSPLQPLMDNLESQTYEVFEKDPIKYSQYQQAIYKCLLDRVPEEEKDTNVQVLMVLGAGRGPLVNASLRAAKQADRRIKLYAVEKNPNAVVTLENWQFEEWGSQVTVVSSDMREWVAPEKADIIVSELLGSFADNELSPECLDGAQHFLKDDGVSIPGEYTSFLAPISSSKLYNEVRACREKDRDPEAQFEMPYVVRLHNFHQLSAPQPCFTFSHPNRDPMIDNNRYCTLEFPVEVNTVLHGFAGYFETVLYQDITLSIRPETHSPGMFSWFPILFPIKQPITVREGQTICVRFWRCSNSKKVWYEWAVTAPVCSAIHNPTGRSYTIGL
T1 sequence (Q9BQA1 whole entry partner): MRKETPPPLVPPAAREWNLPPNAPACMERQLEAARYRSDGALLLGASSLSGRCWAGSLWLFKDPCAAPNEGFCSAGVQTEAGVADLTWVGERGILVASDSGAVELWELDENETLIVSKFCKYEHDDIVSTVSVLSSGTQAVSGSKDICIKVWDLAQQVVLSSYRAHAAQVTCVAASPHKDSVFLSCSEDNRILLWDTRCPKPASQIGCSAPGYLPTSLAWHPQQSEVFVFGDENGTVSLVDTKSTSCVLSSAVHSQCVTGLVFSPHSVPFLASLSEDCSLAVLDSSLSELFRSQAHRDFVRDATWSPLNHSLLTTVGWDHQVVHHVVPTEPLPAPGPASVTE

IC50 (PRMT5 [1]; read-out: No Cofactor/rel IC50) [µM]	IC50 (PRMT5 [2]) [µM]	IC50 (PRMT5 [3]) [µM]	SMILES	IC50 [5, 7] [µM]	other results
> 0.5	0.05 to 0.5	> 0.5	NC(=O)c1cncc(NC(=O)C(=O)N2C[C@@H](CO)CC[C@H]2c2ccccc2)c1 (racemic) [Compound 285, 5-(2-(5-(hydroxymethyl)-2-phenylpiperidin-1-yl)-2-oxoacetamido)nicotinamide]		
> 0.5	0.05 to 0.5	> 0.5	NC(=O)c1cncc(NC(=O)C(=O)N2C[C@H](OC(F)F)CC[C@@H]2c2ccccc2)c1 (racemic) [Compound 400, 5-[[2-[(2R,5R)-5-(Difluoromethoxy)-2-phenyl-1-piperidyl]-2-oxo-acetyl]amino]pyridine-3-carboxamide]		
> 0.5	0.05 to 0.5	> 0.5	NC(=O)c1cncc(NC(=O)C(=O)N2C[C@H](OC(F)(F)F)CC[C@H]2c2ccccc2)c1 (racemic) [Compound 411, 5-[[2-Oxo-2-[2-phenyl-5-(trifluoromethoxy)-1-piperidyl]acetyl]amino]pyridine-3-carboxamide]		
0.05 to 0.5	0.05 to 0.5	0.05 to 0.5	Cc1cc(NC(=O)C(=O)N2C[C@H](C)CC[C@H]2c2ccc3c(c2)CCC(=O)N3)cnc1C(F)(F)F (racemic) [Compound 650, 2-[(2R,5S)-5-Methyl-2-(2-oxo-3,4-dihydro-1H-quinolin-6-yl)-1-piperidyl]-N-[5-methyl-6-(trifluoromethyl)-3-pyridyl]-2-oxo-acetamide]		
> 0.5		> 0.5	Cc1cc(NC(=O)C(=O)N2CCC(N(C)C)C[C@H]2c2ccccc2)cnc1N (mixture of isomers) [Compound 975, N-(6-amino-5-methyl-3-pyridyl)-2-[(2S,4S)-4-(dimethylamino)-2-phenyl-1-piperidyl]-2-oxo-acetamide]		
0.05 to 0.5	0.05 to 0.5	0.05 to 0.5	CNc1ccc([C@@H]2CC(F)(F)[C@@H](C)CN2C(=O)C(=O)Nc2cnc(N)c(C)c2)cn1 (racemic) [Compound 1054]		
			CCc1cc(NC(=O)C(=O)N2C[C@@H](C)[C@@H](OC(C)C)C[C@@H]2c2ccc3scnc3c2)cnc1N (racemic) [Compound 1235]		MTAP intact/deleted ratio ([4]; IC50 ratio HAP1 MTAP-intact vs HAP1 MTAP-deleted): A (an IC50 ratio greater than or equal to 10 fold); IC50 ([5]; viability assay, MTAP-deleted cell line, read-out: HAP1 MTAP deleted viability): < 1 µM
	> 0.5	> 0.5	Cc1ccc([C@H]2CC[C@H](C)CN2C(=O)C(=O)Nc2cncc(C)c2)cc1 (single isomer, unassigned) [Compound 12]		IC50 (PRMT5 [1]; [6]): > 0.5 µM
	> 0.5	> 0.5	CC[C@H]1CC[C@H](c2ccccc2)N(C(=O)C(=O)Nc2cncc(C)c2)C1 (single isomer, unassigned) [Compound 18]		
	> 0.5	> 0.5	Cc1cncc(NC(=O)C(=O)N2C[C@@H](C)CC[C@@H]2c2ccc(C)c(C)c2)c1 (single isomer, unassigned) [Compound 19]		IC50 (PRMT5 [1]; [6]): > 0.5 µM
			Cc1cc(NC(=O)C(=O)N2C[C@H](C)CC[C@H]2c2ccccc2)cnc1N (single isomer, unassigned) [Compound 40]	> 10	
			Cc1cncc(NC(=O)C(=O)N2C(C)C(C)CC[C@H]2c2ccccc2)c1 (single isomer, unassigned) [Compound 41]	> 10	
			C[C@@H]1CC[C@@H](c2ccccc2)N(C(=O)C(=O)Nc2cncc(C(N)=O)c2)C1 (single isomer, unassigned) [Compound 71]	> 10	IC50 ([4]; HAP1, read-out: HAP1 MTAP deleted IC50): > 1 µM
			Cc1cc(NC(=O)C(=O)N2C[C@@H](C)CC[C@@H]2c2ccc(C(F)F)cc2)cnc1N (single isomer, unassigned) [Compound 410]	> 10	
			Cc1cc(NC(=O)C(=O)N2C[C@H](C)CC[C@H]2c2ccc3c(c2)CC(=O)N3)cnc1N (single isomer, unassigned) [Compound 677]	> 10	
			COc1ncc(NC(=O)C(=O)N2C[C@@H](C)CC[C@@H]2c2ccc3sc(CCN(C)C)nc3c2)cc1C(N)=O (single isomer, unassigned) [Compound 1378]		IC50 (PRMT5 [1]; [6]): < 0.05 µM; IC50 ([4]; HAP1, SDMA in-cell western, HAP1 MTAP-deleted, read-out: HAP 1 MTAP deleted IC50): < 0.1 µM; MTAP intact/deleted ratio ([4]; IC50 ratio HAP1 MTAP-intact / HAP1 MTAP-deleted): A (an IC50 ratio greater than or equal to 10 fold); IC50 ([5]; Homo sapiens, HAP1, viability, HAP1 MTAP-deleted cell line, read-out: HAP1 MTAP deleted viability): < 1 µM
